Where “and” joins values, the source holds several entries; their conditions need not be identical. Equal values may be shown once. Where a SMILES comes first, the peptide text is derived from it. [ ]: non-standard residue; d: D form. The star is where a group is joined. NH(thiazol-2-yl) = c1csc(N*)n1; NH(4-picolyl) = c1cc(CN*)ccn1; dNle = CCCC[C@@H](N)C(=O)O; Morpholide = C1CN(*)CCO1; NHCH2CH2OH = OCCN*; X2 = OC1CCN(*)CC1; NEt2 = CCN(CC)*; NHcPr = C1CC1N*; NHBu = CCCCN*; NHPr = CCCN*
What was measured:
[1] = biological target: T1, cloned human kappa (hKOR) receptor (Homo sapiens, UniProt P41145); assay: biochemical; assay type: binding; conditions: for μ/κ Ratio (binding affinity for KOR versus MOR): Ki MOR / Ki KOR; for Ki: read-out: Ki KOR
T1 construct: expressed in transfected cells; host or cells: HN9.10 (mouse hippocampal neuroblastoma), stably transfected
T1 sequence (P41145 whole entry): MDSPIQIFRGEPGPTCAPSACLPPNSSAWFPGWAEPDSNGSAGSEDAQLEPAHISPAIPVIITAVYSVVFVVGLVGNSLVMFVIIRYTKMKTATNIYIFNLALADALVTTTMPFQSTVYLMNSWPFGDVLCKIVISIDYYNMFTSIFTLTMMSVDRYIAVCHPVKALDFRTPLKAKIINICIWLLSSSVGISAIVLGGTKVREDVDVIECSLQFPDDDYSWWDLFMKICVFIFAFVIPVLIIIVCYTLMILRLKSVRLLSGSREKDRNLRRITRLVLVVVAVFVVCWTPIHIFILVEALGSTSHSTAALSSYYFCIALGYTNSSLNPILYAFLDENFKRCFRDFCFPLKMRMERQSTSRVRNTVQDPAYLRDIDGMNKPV

[2] = biological target: T2, cloned human mu opioid (hMOR) receptor (Homo sapiens, UniProt P35372); assay: Competition binding at cloned hMOR, displacement of 3H-DAMGO; conditions: hMOR stably expressed in HN.9.10 cells, read-out: Ki MOR
T2 construct: expressed in transfected cells; host or cells: HN9.10 (mouse hippocampal neuroblastoma), stably transfected
T2 sequence (P35372 whole entry): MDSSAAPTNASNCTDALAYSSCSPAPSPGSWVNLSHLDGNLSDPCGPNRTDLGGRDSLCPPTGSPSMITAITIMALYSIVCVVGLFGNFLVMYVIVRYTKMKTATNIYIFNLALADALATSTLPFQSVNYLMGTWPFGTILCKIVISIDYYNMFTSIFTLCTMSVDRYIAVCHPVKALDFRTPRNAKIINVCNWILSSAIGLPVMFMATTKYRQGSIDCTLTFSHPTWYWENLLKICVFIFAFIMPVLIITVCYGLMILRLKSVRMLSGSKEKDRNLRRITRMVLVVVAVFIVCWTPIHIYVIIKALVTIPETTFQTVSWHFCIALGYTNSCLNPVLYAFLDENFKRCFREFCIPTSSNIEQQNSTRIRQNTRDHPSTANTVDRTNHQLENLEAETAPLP

[3] = system: conscious male ICR mice; assay: Mouse acetic acid writhing test (WT); assay type: in vivo; conditions: for WT-ED50: i.v., 5 minutes before acetic acid i.p., writhes over 15 minutes; for % Antinociception 1 hr / % Antinociception 2 hr / % Antinociception 3 hr: submaximal effective dose i.v., percentage of the activity found at -5 min; for % Antinociception 1 hr: 60 min pretreatment; for % Antinociception 2 hr: 120 min pretreatment; for % Antinociception 3 hr: 180 min pretreatment
Experimental: Selected peptides that are identified in Tables A-G have been further specifically subjected to in vivo testing for determination of duration of action of their opioid properties, and the results are reported in Table H hereinafter. The peptide numbers correspond to those in the earlier tables and the figures with regard to μ/K ratio are simply carried over for reference purposes. The in vivo testing is carried out using a mouse writhing test (WT) that is well-suited for determining the length of duration of antinociceptive biological activity. This test is described in detail in an article by G. A. Bentley et al., Br. J. Phamac., 73:325-332, 1981, and it employs conscious male ICR mice which are purchased from Harlan and which weigh between 20 and 30 grams. The mice are fasted for 12 to 16 hours prior to beginning the test. The nociceptive behavior, i.e. writhing, to be monitored is induced by the intraperitoneal (i.p.) administration of dilute acetic acid. 10 milliliters of 0.6% aqueous acetic acid is used per kg of body weight. Writhing is scored during the 15 minutes following acetic acid administration. In a first step, compounds are tested at 3 to 4 increasing doses, given by intravenous route, and at one unique pretreatment time (-5 minutes before acetic acid injection). […] In a second step, this submaximal effective dose for each specific peptide is administered at various pretreatment times (i.e. -5 minutes, -60 minutes, -120 minutes and -180 minutes) prior to the administration of the acetic acid in order to determine the duration of action. Throughout the test, a control group of mice are used which are administered only the vehicle without the candidate peptide. The number of writhes are counted over a 15-minute period, starting from the time of acetic acid injection, and bioactivity, i.e. antinociception, is expressed as a percentage, and is calculated as follows:
100×(writhes in control group-writhes in treated group)/writhes in
Values higher than 100% indicate greater antinociception than at the beginning of the experiment. It is felt that the opioid peptide should be effective to reduce writhing by at least about 25% at a time of 1 hour to be considered to have long duration of in vivo action.
In addition to using this test to determine duration of antinociceptive activity, it is also used to measure the in vivo biopotency (short term) of the peptide. This value is given in the table under the heading WT-ED50 in milligrams per kg of body weight. The value is a measure of the dosage necessary to reduce the number of writhes in the mouse being tested by 50% (as compared to a control mouse) over a period of 15 minutes.

[4] = system: mouse; conditions: for TF-ED50: i.v., 52° C. water, central effects; for BPI (Brain Penetration Index): mouse, in vivo, iv

| SMILES | μ/κ Ratio (binding affinity for KOR versus MOR) [1] | Ki [1] | Ki [2] | WT-ED50 [3] | % Antinociception 1 hr [3] | % Antinociception 2 hr [3] | TF-ED50 [4] | BPI (Brain Penetration Index) [4] | μ/κ Ratio (binding affinity for KOR versus MOR) ([1]; listed as Peptide No. 1) | WT-ED50 ([3]; listed as Peptide No. 1) | antinociception after 3 hours ([3]; mouse acetic acid writhing assay, Example 1) | duration of antinociceptive bioactivity (duration of action) ([3]; result in words) | % Antinociception 3 hr [3] |
| --- | --- | --- | --- | --- | --- | --- | --- | --- | --- | --- | --- | --- | --- |
| CCCC[C@@H](NC(=O)[C@@H](Cc1ccccc1)NC(=O)[C@H](N)Cc1ccccc1)C(=O)N[C@H](CCCNC(=N)N)C(=O)N1CCOCC1 [Peptide 6, H-D-Phe-D-Phe-D-Nle-D-Arg-Mor] (H-[dF][dF][dNle][dR]-Morpholide) | 42,000 | 0.06 nM | 2510 nM | 0.014 mg/kg | 105.7% | 52.7% | 6.4 mg/kg | 457 | – | – | – | – | – |
| CCCC[C@@H](NC(=O)[C@@H](Cc1ccccc1)NC(=O)[C@H](N)Cc1ccccc1)C(=O)N[C@H](CCCNC(=N)N)C(=O)NC1CC1 [Peptide 5, H-D-Phe-D-Phe-D-Nle-D-Arg-NH(Cyp)] (H-[dF][dF][dNle][dR]-NHcPr) | 20,000 | 0.18 nM | 3520 nM | 0.04 mg/kg | 66% | 34.5% | 4.4 mg/kg | 110 | – | – | – | – | – |
| CCCC[C@@H](NC(=O)[C@@H](Cc1ccccc1)NC(=O)[C@H](N)Cc1ccccc1)C(=O)N[C@H](CCCNC(=N)N)C(=O)NCc1ccncc1 [Peptide 8, H-D-Phe-D-Phe-D-Nle-D-Arg-NH(4-Pic)] (H-[dF][dF][dNle][dR]-{NH(4-picolyl)}) | 26,000 | 0.14 nM | 3640 nM | 0.01 mg/kg | 66.9% | 45.1% | 9.84 mg/kg | 984 | – | – | – | – | – |
| CCCC[C@@H](NC(=O)[C@@H](Cc1ccccc1)NC(=O)[C@H](N)Cc1ccccc1)C(=O)N[C@H](CCCNC(=N)N)C(=O)NCCC [Peptide 3, H-D-Phe-D-Phe-D-Nle-D-Arg-NHPr] (H-[dF][dF][dNle][dR]-NHPr) | 18,000 | 0.09 nM | 1640 nM | 0.078 mg/kg | 29% | 30.7% | 13.82 mg/kg | 177 | – | – | – | – | – |
| CCCC[C@@H](NC(=O)[C@@H](Cc1ccccc1)NC(=O)[C@H](N)Cc1ccccc1)C(=O)N[C@H](CCCNC(=N)N)C(=O)N(CC)CC [Peptide 7, H-D-Phe-D-Phe-D-Nle-D-Arg-N(Et2)] (H-[dF][dF][dNle][dR]-NEt2) | 17,000 | 0.11 nM | 1900 nM | 0.02 mg/kg and 0.020 mg/kg | 67.5% | 36.8% | 3.1 mg/kg | 155 | – | – | – | – | – |
| CCCC[C@@H](NC(=O)[C@@H](Cc1ccccc1)NC(=O)[C@H](N)Cc1ccccc1)C(=O)N[C@H](CCCNC(=N)N)C(=O)NCC [Peptide 1, H-D-Phe-D-Phe-D-Nle-D-Arg-NHEt] (H-[dF][dF][dNle][dR]-NHEt) | 38,000 | ~0.05 nM | 1890 ± 990 nM | 0.09 mg/kg | 83.9% | 75.5% | 9.7 mg/kg | 108 | about 38,000 | about 0.09 mg/kg | over 50% | very long duration of action | 61.3% |
| CC(C)C[C@@H](NC(=O)[C@@H](Cc1ccccc1)NC(=O)[C@H](N)Cc1ccccc1)C(=O)N[C@H](CCCN)C(=O)N1CCOCC1 [Peptide 57, H-D-Phe-D-Phe-D-Leu-D-Onn-Mor] | 28,000 | 0.19 nM | 5260 nM | 0.026 mg/kg | 100% | 67.2% | 5.6 mg/kg | 215 | – | – | – | – | 58.2% |
| CCCC[C@@H](NC(=O)[C@@H](Cc1ccccc1)NC(=O)[C@H](N)Cc1ccccc1)C(=O)N[C@H](CCCNC(=N)N)C(=O)NCCO [Peptide 9, H-D-Phe-D-Phe-D-Nle-D-Arg-NHhEt] (H-[dF][dF][dNle][dR]-NHCH2CH2OH) | 2,500 | 0.4 nM | 1010 nM | 0.03 mg/kg | 72.5% | 39.5% | – | – | – | – | – | – | – |
| CCNC(=O)[C@@H](CCCN)NC(=O)[C@@H](CC(C)C)NC(=O)[C@@H](Cc1ccccc1)NC(=O)[C@H](N)Cc1ccccc1 [Peptide 56, H-D-Phe-D-Phe-D-Leu-D-Orn-NHEt] | 13,000 | 0.31 nM | 4150 nM | 0.057 mg/kg and 0.06 mg/kg | 76.3% | 60.2% | – | – | – | – | – | – | – |
| CCCC[C@@H](NC(=O)[C@@H](Cc1ccccc1)NC(=O)[C@H](N)Cc1ccccc1)C(=O)N[C@H](CCCNC(=N)N)C(=O)Nc1nccs1 [Peptide 13, H-D-Phe-D-Phe-D-Nle-D-Arg-NH(2-Tzl)] (H-[dF][dF][dNle][dR]-{NH(thiazol-2-yl)}) | 2,700 | 0.59 nM | 1590 nM | 0.44 mg/kg | 30.7% | – | – | – | – | – | – | – | – |
| CCCC[C@@H](NC(=O)[C@@H](Cc1ccccc1)NC(=O)[C@H](N)Cc1ccccc1)C(=O)N[C@H](CCCNC(=N)N)C(=O)N1CCC(O)CC1 [Peptide 11, H-D-Phe-D-Phe-D-Nle-D-Arg-4-HyP] (H-[dF][dF][dNle][dR]-X2) | 62,000 | 0.06 nM | 3700 nM | 0.073 mg/kg and 0.07 mg/kg | 61.8% | 36.9% | – | – | – | – | – | – | – |
| CCCC[C@@H](NC(=O)[C@@H](Cc1ccccc1)NC(=O)[C@H](N)Cc1ccccc1)C(=O)N[C@H](CCCNC(=N)N)C(=O)NC [Peptide 2, H-D-Phe-D-Phe-D-Nle-D-Arg-NHMe] (H-[dF][dF][dNle][dR]-NHMe) | 60,000 | 0.06 nM | 3620 nM | 0.14 mg/kg | 70.5% | 29.8% | – | – | – | – | – | – | – |
| CCCCNC(=O)[C@@H](CCCNC(=N)N)NC(=O)[C@@H](CCCC)NC(=O)[C@@H](Cc1ccccc1)NC(=O)[C@H](N)Cc1ccccc1 [Peptide 4, H-D-Phe-D-Phe-D-Nle-D-Arg-NHBu] (H-[dF][dF][dNle][dR]-NHBu) | 7,200 | 0.19 nM | 1370 nM | 0.3 mg/kg and 0.30 mg/kg | 49.3% | – | – | – | – | – | – | – | – |
